In patent US7670416B2, “Use of a combination of substances to prevent biofouling organisms” (I-Tech AB, priority 2005, dated 2010):

Columns and labels:
Barnacle cyprid larvae = assay: cyprid settling rate assay (barnacle biofouling); format: in vivo
From the text: The assays that are be used are the cyprid settling rate assay and the algae germination test.

Ulva = assay: algae spore germination test (Ulva biofouling);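 note: ulva spores exposed to test compound, then compound removed and spores germinated in culture medium under fluorescent light, 16 h light and 8 h dark, for 7 days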
Method: (§1) The efficacy of algicides is usually tested by a spore germination test. Algae are collected from the field and grown in the laboratory. […] The water with test compound is then removed and culture medium is added. The spores are left to germinate under fluorescent lamps (50 μm-2s-1 (PAR)), 16 h light, 8 h darkness, for 7 days in a culture medium, which is changed once a day.
(§2) All the different brands are tested in combination with Catemine 1 for efficacy against both barnacles and algae with the two compounds together or separate. The assays that are be used are the cyprid settling rate assay and the algae germination test.

Enteromorpha = assay: algae spore germination test (Enteromorpha biofouling); format: in vivo
Method: as §1, §2

algae = details: reference (6); target protein lacking within algae; cited from earlier work
barnacle cyprids = details: reference (6); cited from earlier work
[1] = 0.1 nM Catemine 1 alone (Table 2)
[2] = 0.1 nM Catemine 1 alone (Table 4)
[3] = 1 nM Catemine 1 alone (Table 2)
[4] = 1 nM Catemine 1 alone (Table 4)
[5] = 10 nM Catemine 1 alone (Table 2)
[6] = 10 nM Catemine 1 alone (Table 4)
[7] = 100 nM Catemine 1 alone (Table 2)
[8] = 100 nM Catemine 1 alone (Table 4)

With `CN(C)S(=O)(=O)N(SC(F)(Cl)Cl)c1ccccc1` [Dichlofluanid, N′-dimethyl-N-phenylsulphamide] the “Barnacle biofouling (% settlement)” value (Barnacle cyprid larvae; 0.1 μg/ml Dichlofluanid alone) was 100%, the “Barnacle biofouling (% settlement)” value (Barnacle cyprid larvae; 1 μg/ml Dichlofluanid alone) was 50% and the “Barnacle biofouling (% settlement)” value (Barnacle cyprid larvae; 10 μg/ml Dichlofluanid alone) was 25%. For the same compound, the “Barnacle biofouling (% settlement)” value (Barnacle cyprid larvae; 100 μg/ml Dichlofluanid alone) was 0%, the “Ulva biofouling (% survival)” value (Ulva; 0.1 μg/ml Dichlofluanid alone) was 100% and the “Ulva biofouling (% survival)” value (Ulva; 1 μg/ml Dichlofluanid alone) was 90%. The “Ulva biofouling (% survival)” value (Ulva; 10 μg/ml Dichlofluanid alone) was 10% and the “Ulva biofouling (% survival)” value (Ulva; 100 μg/ml Dichlofluanid alone) was 0%.
With `Cc1cccc(C(C)c2c[nH]cn2)c1C` (racemic) [Catemine 1, (+/−)-4-[1-(2,3-dimethylphenyl)ethyl]-1H-imidazole] the “Enteromorpha biofouling (% survival)” value (Enteromorpha; 0.1 nM Catemine 1 alone) was 100%, the “Enteromorpha biofouling (% survival)” value (Enteromorpha; 1 nM Catemine 1 alone) was 100% and the “Enteromorpha biofouling (% survival)” value (Enteromorpha; 10 nM Catemine 1 alone) was 100%. For the same compound, the “Enteromorpha biofouling (% survival)” value (Enteromorpha; 100 nM Catemine 1 alone) was 100%, the “effect of algal growth” value (algae) was “no effect” and the “action on barnacle cyprids” value (barnacle cyprids) was “specific action”. For the same compound, the “Barnacle biofouling (% settlement)” value (Barnacle cyprid larvae; 0.1 nM Catemine 1 alone) was 100%, the “Barnacle biofouling (% settlement)” value (Barnacle cyprid larvae; [1]) was 100% and the “Barnacle biofouling (% settlement)” value (Barnacle cyprid larvae; 0.1 nM Catemine 1 alone (Table 3)) was 100%. The “Barnacle biofouling (% settlement)” value (Barnacle cyprid larvae; [2]) was 100%, the “Barnacle biofouling (% settlement)” value (Barnacle cyprid larvae; 1 nM Catemine 1 alone) was 10% and the “Barnacle biofouling (% settlement)” value (Barnacle cyprid larvae; [3]) was 10%. For the same compound, the “Barnacle biofouling (% settlement)” value (Barnacle cyprid larvae; 1 nM Catemine 1 alone (Table 3)) was 10%, the “Barnacle biofouling (% settlement)” value (Barnacle cyprid larvae; [4]) was 10% and the “Barnacle biofouling (% settlement)” value (Barnacle cyprid larvae; 10 nM Catemine 1 alone) was 0%. For the same compound, the “Barnacle biofouling (% settlement)” value (Barnacle cyprid larvae; [5]) was 0%, the “Barnacle biofouling (% settlement)” value (Barnacle cyprid larvae; 10 nM Catemine 1 alone (Table 3)) was 0% and the “Barnacle biofouling (% settlement)” value (Barnacle cyprid larvae; [6]) was 0%. The “Barnacle biofouling (% settlement)” value (Barnacle cyprid larvae; 100 nM Catemine 1 alone) was 0%, the “Barnacle biofouling (% settlement)” value (Barnacle cyprid larvae; [7]) was 0% and the “Barnacle biofouling (% settlement)” value (Barnacle cyprid larvae; 100 nM Catemine 1 alone (Table 3)) was 0%. For the same compound, the “Barnacle biofouling (% settlement)” value (Barnacle cyprid larvae; [8]) was 0%, the “Ulva biofouling (% survival)” value (Ulva; 0.1 nM Catemine 1 alone) was 100% and the “Ulva biofouling (% survival)” value (Ulva; [1]) was 100%. The “Ulva biofouling (% survival)” value (Ulva; [2]) was 100%, the “Ulva biofouling (% survival)” value (Ulva; 1 nM Catemine 1 alone) was 100% and the “Ulva biofouling (% survival)” value (Ulva; [3]) was 100%. For the same compound, the “Ulva biofouling (% survival)” value (Ulva; [4]) was 100%, the “Ulva biofouling (% survival)” value (Ulva; 10 nM Catemine 1 alone) was 100% and the “Ulva biofouling (% survival)” value (Ulva; [5]) was 100%. For the same compound, the “Ulva biofouling (% survival)” value (Ulva; [6]) was 100%, the “Ulva biofouling (% survival)” value (Ulva; 100 nM Catemine 1 alone) was 100% and the “Ulva biofouling (% survival)” value (Ulva; [7]) was 100%. The “Ulva biofouling (% survival)” value (Ulva; [8]) was 100%.
With `CSc1nc(NC2CC2)nc(NC(C)(C)C)n1` [Irgarol, 2-methylthio-4-tert-butylamino-6-cyclopropylamino-s-triziane] the “Enteromorpha biofouling (% survival)” value (Enteromorpha; 0.1 nM Irgarol alone) was 100%, the “Enteromorpha biofouling (% survival)” value (Enteromorpha; 1 nM Irgarol alone) was 100% and the “Enteromorpha biofouling (% survival)” value (Enteromorpha; 10 nM Irgarol alone) was 50%. For the same compound, the “Enteromorpha biofouling (% survival)” value (Enteromorpha; 100 nM Irgarol alone) was 0%, the “Barnacle biofouling (% settlement)” value (Barnacle cyprid larvae; 0.1 nM Irgarol alone) was 100% and the “Barnacle biofouling (% settlement)” value (Barnacle cyprid larvae; 1 nM Irgarol alone) was 100%. The “Barnacle biofouling (% settlement)” value (Barnacle cyprid larvae; 10 nM Irgarol alone) was 100% and the “Barnacle biofouling (% settlement)” value (Barnacle cyprid larvae; 100 nM Irgarol alone) was 100%.
With `CN(C)C(=O)Nc1ccc(Cl)c(Cl)c1` [Diuron, 3-(3,4-dichlorophenyl)-1,1-dimethylurea] the “Barnacle biofouling (% settlement)” value (Barnacle cyprid larvae; 0.1 μM Diuron alone) was 100%, the “Barnacle biofouling (% settlement)” value (Barnacle cyprid larvae; 1 μM Diuron alone) was 100% and the “Barnacle biofouling (% settlement)” value (Barnacle cyprid larvae; 10 μM Diuron alone) was 100%. For the same compound, the “Barnacle biofouling (% settlement)” value (Barnacle cyprid larvae; 100 μM Diuron alone) was 100%, the “Ulva biofouling (% survival)” value (Ulva; 0.1 μM Diuron alone) was 100% and the “Ulva biofouling (% survival)” value (Ulva; 1 μM Diuron alone) was 90%. The “Ulva biofouling (% survival)” value (Ulva; 10 μM Diuron alone) was 50% and the “Ulva biofouling (% survival)” value (Ulva; 100 μM Diuron alone) was 0%.
With `CCCCCCCCn1sc(Cl)c(Cl)c1=O` [SeaNine, 4,5-dichloro-2-n-octyl-3(2H)-isothiazolone] the “Barnacle biofouling (% settlement)” value (Barnacle cyprid larvae; 0.1 nM SeaNine alone) was 100%, the “Barnacle biofouling (% settlement)” value (Barnacle cyprid larvae; 1 nM SeaNine alone) was 50% and the “Barnacle biofouling (% settlement)” value (Barnacle cyprid larvae; 10 nM SeaNine alone) was 10%. The “Barnacle biofouling (% settlement)” value (Barnacle cyprid larvae; 100 nM SeaNine alone) was 0%, the “Ulva biofouling (% survival)” value (Ulva; 0.1 nM SeaNine alone) was 100% and the “Ulva biofouling (% survival)” value (Ulva; 1 nM SeaNine alone) was 50%. For the same compound, the “Ulva biofouling (% survival)” value (Ulva; 10 nM SeaNine alone) was 10% and the “Ulva biofouling (% survival)” value (Ulva; 100 nM SeaNine alone) was 0%.
